Data from ChEMBL document CHEMBL1201862, “PubChem BioAssay data set” (2004).
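The compound was tested at five concentrations on cells cultured in 96-well plates, with a 48-hour exposure period. Abbreviation: GI50, concentration required for 50% inhibition of growth.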 Calls of active or inactive are those of the source. Cut-off read from the data, not from the text of the source: active = GI50 up to about 1.1 µM and inactive = higher.

Legend:
Test in all cases: NCI-60 cell line screen, 48 h
OVCAR-5 = tested on: OVCAR-5
HCT-116 = tested on: HCT-116
Hs-578T = tested on: Hs-578T
TK-10 = tested on: TK-10
A498 = tested on: A498
NCI/ADR-RES = tested on: NCI/ADR-RES
NCI-H226 = tested on: NCI-H226
OVCAR-3 = tested on: OVCAR-3
SK-MEL-28 = tested on: SK-MEL-28
PC-3 = tested on: PC-3
CAKI-1 = tested on: CAKI-1
RXF 393 = tested on: RXF 393
MCF7 = tested on: MCF7
OVCAR-4 = tested on: OVCAR-4
EKVX = tested on: EKVX
HCC 2998 = tested on: HCC 2998
SR = tested on: SR
SF-539 = tested on: SF-539
HOP-92 = tested on: HOP-92
UACC-257 = tested on: UACC-257

Measured: GI50

c1ccc(CSC2(SCc3ccccc3)CCCC2)cc1
inactive: OVCAR-5 > 10 µM | HCT-116 > 10 µM | Hs-578T 6.97 µM | TK-10 > 10 µM | A498 > 10 µM | NCI/ADR-RES > 10 µM | NCI-H226 > 10 µM | OVCAR-3 > 10 µM | SK-MEL-28 > 10 µM | PC-3 > 10 µM | CAKI-1 > 10 µM | RXF 393 > 10 µM | MCF7 > 10 µM | OVCAR-4 > 10 µM | EKVX > 10 µM | HCC 2998 > 10 µM | SR > 10 µM | SF-539 > 10 µM

C[C@]12CC[C@H]3[C@@H](CCC4=CC(=O)CC[C@@]43C)[C@@H]1CC[C@@H]2C(=O)COS(=O)(=O)c1ccc(Br)cc1
inactive: OVCAR-5 18.1 µM | Hs-578T 20.4 µM | TK-10 18.3 µM | A498 20.2 µM | NCI/ADR-RES 10.6 µM | NCI-H226 13.2 µM | HOP-92 5.94 µM | OVCAR-3 6.43 µM | SK-MEL-28 21 µM | PC-3 8.85 µM | CAKI-1 7.76 µM | RXF 393 14.5 µM | MCF7 8.15 µM | OVCAR-4 4.5 µM | EKVX 7.67 µM | HCC 2998 2.09 µM | SR 1.4 µM | UACC-257 13.7 µM | SF-539 9.25 µM

Nc1n[c-](N)[n+](=O)c(N)c1NCO
inactive: OVCAR-5 > 100 µM | HCT-116 > 100 µM | Hs-578T > 100 µM | TK-10 > 100 µM | A498 > 100 µM | NCI/ADR-RES > 100 µM | NCI-H226 > 100 µM | HOP-92 > 100 µM | OVCAR-3 > 100 µM | SK-MEL-28 > 100 µM | PC-3 > 100 µM | CAKI-1 > 100 µM | RXF 393 > 100 µM | MCF7 > 100 µM | OVCAR-4 > 100 µM | EKVX > 100 µM | HCC 2998 > 100 µM | SR > 100 µM | UACC-257 > 100 µM | SF-539 > 100 µM

CC(=O)C1CC[C@@H]2[C@H](CC[C@]3(C)[C@@H](O)CC[C@@H]23)[C@H]1C(=O)O (stereo partly drawn)
inactive: OVCAR-5 > 100 µM | Hs-578T 74.1 µM | TK-10 > 100 µM | A498 > 100 µM | NCI/ADR-RES > 100 µM | HOP-92 > 100 µM | OVCAR-3 > 100 µM | SK-MEL-28 > 100 µM | PC-3 > 100 µM | CAKI-1 > 100 µM | RXF 393 > 100 µM | MCF7 > 100 µM | OVCAR-4 > 100 µM | EKVX > 100 µM | HCC 2998 > 100 µM | SR > 100 µM | UACC-257 > 100 µM | SF-539 > 100 µM

ClCC1(CCl)COC1
inactive: HCT-116 > 100 µM | Hs-578T > 100 µM | TK-10 > 100 µM | A498 > 100 µM | NCI/ADR-RES > 100 µM | NCI-H226 > 100 µM | HOP-92 > 100 µM | OVCAR-3 > 100 µM | SK-MEL-28 > 100 µM | PC-3 > 100 µM | RXF 393 > 100 µM | MCF7 > 100 µM | OVCAR-4 > 100 µM | HCC 2998 > 100 µM | SR > 100 µM | UACC-257 > 100 µM

O=C(O)Cc1cc(F)ccc1C(=O)O
inactive: OVCAR-5 > 100 µM | HCT-116 > 100 µM | Hs-578T > 100 µM | TK-10 > 100 µM | A498 > 100 µM | NCI/ADR-RES > 100 µM | HOP-92 > 100 µM | OVCAR-3 > 100 µM | SK-MEL-28 60.3 µM | PC-3 > 100 µM | CAKI-1 31 µM | RXF 393 58.5 µM | MCF7 > 100 µM | EKVX > 100 µM | HCC 2998 > 100 µM | SR 77.1 µM | UACC-257 > 100 µM | SF-539 > 100 µM

c1ccc(NN/N=N/c2ccc(-c3nc4ccccc4[nH]3)cc2)cc1
inactive: OVCAR-5 > 100 µM | HCT-116 28 µM | Hs-578T 29.1 µM | TK-10 64.4 µM | A498 43.7 µM | NCI/ADR-RES 22.1 µM | NCI-H226 36.9 µM | HOP-92 60.7 µM | OVCAR-3 15.6 µM | SK-MEL-28 35.8 µM | PC-3 26.8 µM | CAKI-1 30.1 µM | RXF 393 21.3 µM | MCF7 15.3 µM | OVCAR-4 23.4 µM | EKVX 39.4 µM | SR 31.8 µM | UACC-257 28.6 µM | SF-539 77.6 µM
